Measured values reported in patent publication US20090130121A1, “Synthetic Peptide Copolymers for Treatment and Prevention of Cardiovascular Disorders” (Yeda Research and Development Co., Ltd., priority 2005, published 2009).

Legend:
[1] = tested on: apolipoprotein E-deficient mice; conditions: 12 week treatment; cited from earlier work
[2] = tested on: C57BL/J6 mice maintained on an atherogenic diet; assay: Atherosclerotic fatty streak area (oil red O) in aorta of C57BL/J6 mice on atherogenic diet; assay type: in vivo
Description: Fourteen-month-old male C57BL/J6 mice (Harlan) with an average body weight of 19 g were randomly divided into three groups (five animals in each group). The groups entered a two-week acclimatization period. Groups A, which served as positive control and B, which served as the treated group, received a high fat atherogenic diet containing 1.25 % cholesterol, 0.5% sodium cholate and 15% fat (Harlan Laboratories, Teklad Premier Laboratory Diets, Madison, Wis., USA TD 88051). Group C served as negative control and was maintained on a normal mouse chow (Altromin, Standard Diet). The chow was supplied considering that the average intake of food for each animal is about 5 g/day (Walker et al., 1999, Arterioscler Thromb Vasc Biol. 19, 2673-2679). Replenishment of food and autoclaved water was performed every other day. All the animals were weighed weekly during the study. The mice were maintained on a 12-hour light/dark cycle in ventilated cages and temperature-controlled environment, in accordance with the standard animal care requirements of the Weizmann Institute of Science. […]
Histological evaluations of aortic fatty streak formation were performed according to the method of Paigen et al. with some modifications (Paigen et al., 1987. Atherosclerosis. 68:231-240). […] The fatty streak area stained with oil red O was objectively determined using a computer microscopy planimetry system (Nikon Micro & Macro system eclipse E800; Nikon digital camera DXM 1200 CCD; Nikon ×20/0.75 lens magnification) and Image-Pro Plus image analyses software for Windows XP. The total stained area (calculated for all 20 slices of each animal) was averaged per section for each animal. […]
(§1) ANOVA single factor test was used for the comparison of the body weights of the C57BL/J6 mice. Since no fatty streaks were detected in the negative control group of the C57BL/J6 mice (Group C), only two groups (A and B) participated in the statistical analysis of the results obtained in the quantization of aortic fatty streak area. The C57BL/J6 data were analyzed using Student's t-test: two samples assuming unequal variance. […]

[3] = several clinical trials; mostly mild reactions at the injection site; cited from earlier work
[4] = Survival and body weight of C57BL/J6 mice on atherogenic diet, daily SC treatment; assay type: in vivo; conditions: Group B, GA 0.5 mg/0.2 ml SC daily
Description: Fourteen-month-old male C57BL/J6 mice (Harlan) with an average body weight of 19 g were randomly divided into three groups (five animals in each group). The groups entered a two-week acclimatization period. Groups A, which served as positive control and B, which served as the treated group, received a high fat atherogenic diet containing 1.25 % cholesterol, 0.5% sodium cholate and 15% fat (Harlan Laboratories, Teklad Premier Laboratory Diets, Madison, Wis., USA TD 88051). Group C served as negative control and was maintained on a normal mouse chow (Altromin, Standard Diet). The chow was supplied considering that the average intake of food for each animal is about 5 g/day (Walker et al., 1999, Arterioscler Thromb Vasc Biol. 19, 2673-2679). Replenishment of food and autoclaved water was performed every other day. All the animals were weighed weekly during the study. The mice were maintained on a 12-hour light/dark cycle in ventilated cages and temperature-controlled environment, in accordance with the standard animal care requirements of the Weizmann Institute of Science.
Following acclimatization, the animals in groups A (positive control) and C (negative control) received 0.2 ml of PBS injected daily subcutaneously (SC). The animals in group B (treated) received SC daily injections of glatiramer acetate (GA) (COPAXONE®, Teva Pharmaceutical Industries Ltd) in PBS (0.5 mg/0.2 ml). After 8 weeks all the mice were bled retro-orbitally and humanely sacrificed by cervical dislocation. The hearts and ascending aorta were removed from the animals, rinsed with Dulbecco's PBS (Life Technologies) and used for the evaluation of fatty streak formation.
as §1

apoE-/- mice [5] = assay: Atherosclerotic lesion progression in the aortic sinus of apoE-/- mice; assay type: in vivo; conditions: daily 8 weeks
Method: (§2) apoE-/- (backcrossed 10 times to C57BL/6J) mice were obtained from the Jackson Laboratory and were maintained under specific pathogen-free conditions and fed a normal chow diet. All experimental procedures were performed with approval from the Animal Care Committee of the Weizmann Institute of Science.
Eight-month-old apoE-/- mice (101 mice) were divided into 7 groups, […] (except day 0 group; n=11). Control group-time 0 (group 1) was sacrificed before treatment in order to measure the atherosclerotic lesion area prior to the treatments. Treatments were performed daily for a period of 8 weeks. Control group (group II) was orally administrated with PBS (0.2 ml). Control group III was injected subcutaneously (SC) with PBS (0.2 ml). […] Group VI was injected subcutaneously (SC) with GA in PBS (0.5 mg/0.2 ml). Group VII was injected subcutaneously (SC) with GA in PBS (2.0 mg/0.2 ml).
Histological evaluations of aortic fatty streak formation were performed according to the method of Paigen et al. with some modifications (Paigen et al., 1987. Atherosclerosis. 68:231-240). Briefly, the apical two thirds of the myocardium were removed and the basal part was snap-frozen in OCT (Sakura Tissue-Tek) using Isopentan cooled in liquid nitrogen. The frozen tissue blocks were placed on a cryostat, and 10-μm serial slices of the ascending aorta were collected on charge-coated Superfrost glass slides until it became possible to locate the most cranial portion of the aortic sinus by examining unstained slices. Once this slice was identified, 40 slices covering 400 μm of the ascending aorta were collected. Every second slice of the 40 collected was stained with oil red O (Riedel de Haen), counterstained with hematoxylin (Merck) stains and used for further evaluation. The fatty streak area stained with oil red O was objectively determined using a computer microscopy planimetry system (Nikon Micro & Macro system eclipse E800; Nikon digital camera DXM 1200 CCD; Nikon ×20/0.75 lens magnification) and Image-Pro Plus image analyses software for Windows XP. The total stained area (calculated for all 20 slices of each animal) was averaged per section for each animal. Thereafter, the area per slice was averaged for each group of animals and presented in μm^2.
Student's t-test was used for the comparison of the lesion progression in the aortic sinus of the treated and control groups of the apoE-/- mice.

[6] = Body weight gain and plasma lipids in apoE-/- mice; assay type: in vivo; conditions: high and low doses, subcutaneously or orally, daily 8 weeks
Method: as §2
(§3) Eight-month-old apoE-/- mice (101 mice) were divided into 7 groups, […] (except day 0 group; n=11). Control group-time 0 (group 1) was sacrificed before treatment in order to measure the atherosclerotic lesion area prior to the treatments. Treatments were performed daily for a period of 8 weeks. Control group (group II) was orally administrated with PBS (0.2 ml). Control group III was injected subcutaneously (SC) with PBS (0.2 ml). Group IV was orally treated with GA in PBS (5.0 μg/0.2 ml); Groups V was orally treated with GA in PBS (250 μg/0.2 ml). Group VI was injected subcutaneously (SC) with GA in PBS (0.5 mg/0.2 ml). Group VII was injected subcutaneously (SC) with GA in PBS (2.0 mg/0.2 ml).
The whole blood samples were centrifuged for plasma separation and the plasma samples of each group were pooled. Total Plasma cholesterol as well as low and high density lipoprotein cholesterol (LDL and HDL, respectively) concentrations were measured in each group using Konelab 30i autoanalyser (Kone Instruments, Espoo, Finland).

apoE-/- mice [7] = assay: Aortic atherosclerotic lesion area in apoE-/- mice; assay type: in vivo
Method: as §2, §3
Aortic atherosclerotic areas were measured in control and treated mice of the following groups: I (time 0); III (S.C. PBS); V (Oral GA, 250 μg); and VII (S.C. GA, 2.0 mg).

Compound	decrease in the size of atherosclerotic lesions [1] [%]	animals with no fatty streaks in the analysed aortic section (20 slices) ([2]; Group B, GA 0.5 mg SC daily 8 weeks, animals that reached the end of the study)	reduction in the fatty streak area compared to the untreated mice ([2]; calculated for all four mice in Group B) [fold]	average area stained with oil red O relative to positive control Group A ([2]; the two GA-treated mice that had fatty streaks, p=0.014) [%]	tolerability in clinical trials [3]	average body weight ten weeks following the initiation of the study ([4]; atherogenic diet) [g]	weight gained during the 10 weeks of the study ([4]; atherogenic diet) [g]	animals that reached the end of the study ([4]; one animal found dead five weeks into the study)	inhibition of the progression of lesion area in the aortic sinus with respect to control (apoE-/- mice [5]; high dose S.C. (2.0 mg)) [%]	inhibition of the progression of lesion area in the aortic sinus with respect to control (apoE-/- mice [5]; high dose orally (250 μg)) [%]	effect on lesion progression in the aortic sinus (apoE-/- mice [5]; low dose S.C. (500 μg))	effect on lesion progression in the aortic sinus (apoE-/- mice [5]; low dose orally (50 μg))	effect on body weight gain [6]	change in aortic lesion area compared to time 0 (apoE-/- mice [7]; Oral GA 250 μg, group V, P<0.05)	inhibition of aortic lesion area progression compared to control group III (apoE-/- mice [7]; high dose 2.0 mg S.C., group VII, t-test P=0.009) [%]
CC(=O)CCCCn1c(=O)c2c(ncn2C)n(C)c1=O [PTX, pentoxifylline]	60	–	–	–	–	–	–	–	–	–	–	–	–	–	–
glatiramer acetate [GA]	–	two out of four	4	40	well tolerated with only minor side reactions	24.20 ± 0.94	5.24 ± 1.40	Four out of five	44.4	37.7	did not effect	did not effect	did not affect	significance increase	52
